Test results published in patent US20250011368A1, “DLL3 TARGETING PEPTIDES AND CONSTRUCTS THEREOF” (MARIANA ONCOLOGY INC., priority 2023, published 2025).
Bridge positions count the residues as written; N and C are the ends. Square brackets hold non-standard residues; d marks the D form. Peptide text beside a SMILES is read from it. * marks the point of attachment. DOTA = O=C(O)CN1CCN(CC(=O)O)CCN(CC(=O)*)CCN(CC(=O)O)CC1; Phe(4-CF3) = N[C@@H](Cc1ccc(C(F)(F)F)cc1)C(=O)O; Trp(5-F) = N[C@@H](Cc1c[nH]c2ccc(F)cc12)C(=O)O; Phe(2-CF3) = N[C@@H](Cc1ccccc1C(F)(F)F)C(=O)O; Trp(7-aza) = N[C@@H](Cc1c[nH]c2ncccc12)C(=O)O; Cha = N[C@@H](CC1CCCCC1)C(=O)O; Cba = N[C@@H](CC1CCC1)C(=O)O; Chg = N[C@H](C(=O)O)C1CCCCC1; Aze = O=C(O)[C@@H]1CCN1

target: T1, human DLL3 (Homo sapiens, UniProt Q9NYJ7); assay: Affinity determination by Surface Plasmon Resonance (SPR); type: binding; settings: 25° C., biotinylated human DLL3 immobilized on streptavidin sensor chip, 1:1 binding model; read-out: SPR KD
T1 sequence (Q9NYJ7 27-618): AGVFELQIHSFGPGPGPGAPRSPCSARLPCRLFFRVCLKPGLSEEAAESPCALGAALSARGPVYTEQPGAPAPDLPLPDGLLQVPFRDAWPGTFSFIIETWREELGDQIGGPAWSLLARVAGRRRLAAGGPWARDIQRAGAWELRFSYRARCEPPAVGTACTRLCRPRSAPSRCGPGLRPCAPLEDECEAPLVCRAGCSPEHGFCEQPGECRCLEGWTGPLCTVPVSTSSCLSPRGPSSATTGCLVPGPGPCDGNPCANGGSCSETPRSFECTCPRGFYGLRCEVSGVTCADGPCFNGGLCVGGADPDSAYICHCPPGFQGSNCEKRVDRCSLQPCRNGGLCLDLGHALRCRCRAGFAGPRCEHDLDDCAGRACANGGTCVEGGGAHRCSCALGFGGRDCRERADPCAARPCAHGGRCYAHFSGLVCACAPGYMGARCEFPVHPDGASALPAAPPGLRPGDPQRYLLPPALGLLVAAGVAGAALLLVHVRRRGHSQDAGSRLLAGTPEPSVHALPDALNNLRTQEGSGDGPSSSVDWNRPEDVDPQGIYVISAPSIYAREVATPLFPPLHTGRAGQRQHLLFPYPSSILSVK
Procedure, shortened: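 Biotinylated human DLL3 was captured on a streptavidin chip with a reference surface. Compounds at several concentrations were injected at 100 μL/minute in phosphate buffer (137 mM NaCl, 2.7 mM KCl, 0.05% P20, 2% DMSO). Affinity and kinetics came from 1:1 model fits of the sensorgrams.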

| Kd [nM] | Structure (SMILES) |
| --- | --- |
| 1 to 10 | CC(=O)N[C@@H](Cc1c[nH]c2ccc(F)cc12)C(=O)N[C@H](C(=O)N[C@@H](CC1CCCCC1)C(=O)N[C@H]1CSSC[C@@H](C(=O)N[C@@H](Cc2c[nH]c3ncccc23)C(=O)N2CC[C@H]2C(=O)N[C@H](CCCCNC(=O)CN2CCN(CC(=O)O)CCN(CC(=O)O)CCN(CC(=O)O)CC2)C(N)=O)NC(=O)[C@H](CC(=O)O)NC(=O)[C@H](Cc2cnc[nH]2)NC(=O)[C@H](Cc2ccc(C(F)(F)F)cc2)NC(=O)[C@H](CC(N)=O)NC(=O)[C@H](CC(N)=O)NC1=O)[C@@H](C)O [compound 141, Ac-(5Fluoro-W)-T-(CHA)-C(3)-N-N-(4CF3-F)-H-D-C(3)-(7Aza-W)-(Aze)-[D-Lys(DOTA)]-NH2] (Ac-[Trp(5-F)]T[Cha]CNN[Phe(4-CF3)]HDC[Trp(7-aza)][Aze][dK](DOTA)-NH2; disulfide 4-10) |
| 1 to 10 | CC(=O)N[C@@H](Cc1c[nH]c2ccc(F)cc12)C(=O)N[C@H](C(=O)N[C@@H](CC1CCC1)C(=O)N[C@H]1CSSC[C@@H](C(=O)N[C@@H](Cc2c[nH]c3ncccc23)C(=O)N2CC[C@H]2C(=O)N[C@H](CCCCNC(=O)CN2CCN(CC(=O)O)CCN(CC(=O)O)CCN(CC(=O)O)CC2)C(N)=O)NC(=O)[C@H](CC(=O)O)NC(=O)[C@H](Cc2cnc[nH]2)NC(=O)[C@H](Cc2ccc(C(F)(F)F)cc2)NC(=O)[C@H](CC(N)=O)NC(=O)[C@H](CC(N)=O)NC1=O)[C@@H](C)O [compound 142, Ac-(5Fluoro-W)-T-(CBA)-C(3)-N-N-(4CF3-F)-H-D-C(3)-(7Aza-W)-(Aze)-[D-Lys(DOTA)]-NH2] (Ac-[Trp(5-F)]T[Cba]CNN[Phe(4-CF3)]HDC[Trp(7-aza)][Aze][dK](DOTA)-NH2; disulfide 4-10) |
| 1 to 10 | CC(=O)N[C@@H](Cc1c[nH]c2ccc(F)cc12)C(=O)N[C@H](C(=O)N[C@H](C(=O)N[C@H]1CSSC[C@@H](C(=O)N[C@@H](Cc2c[nH]c3ncccc23)C(=O)N2CC[C@H]2C(=O)N[C@H](CCCCNC(=O)CN2CCN(CC(=O)O)CCN(CC(=O)O)CCN(CC(=O)O)CC2)C(N)=O)NC(=O)[C@H](CC(=O)O)NC(=O)[C@H](Cc2cnc[nH]2)NC(=O)[C@H](Cc2ccc(C(F)(F)F)cc2)NC(=O)[C@H](CC(N)=O)NC(=O)[C@H](CC(N)=O)NC1=O)C1CCCCC1)[C@@H](C)O [compound 143, Ac-(5Fluoro-W)-T-(Chg)-C(3)-N-N-(4CF3-F)-H-D-C(3)-(7Aza-W)-(Aze)-[D-Lys(DOTA)]-NH2] (Ac-[Trp(5-F)]T[Chg]CNN[Phe(4-CF3)]HDC[Trp(7-aza)][Aze][dK](DOTA)-NH2; disulfide 4-10) |
| 1 to 10 | CC(=O)N[C@@H](Cc1c[nH]c2ccc(F)cc12)C(=O)N[C@H](C(=O)N[C@@H](Cc1ccccc1C(F)(F)F)C(=O)N[C@H]1CSSC[C@@H](C(=O)N[C@@H](Cc2c[nH]c3ncccc23)C(=O)N2CC[C@H]2C(=O)N[C@H](CCCCNC(=O)CN2CCN(CC(=O)O)CCN(CC(=O)O)CCN(CC(=O)O)CC2)C(N)=O)NC(=O)[C@H](CC(=O)O)NC(=O)[C@H](Cc2cnc[nH]2)NC(=O)[C@H](Cc2ccc(C(F)(F)F)cc2)NC(=O)[C@H](CC(N)=O)NC(=O)[C@H](CC(N)=O)NC1=O)[C@@H](C)O [compound 144, Ac-(5Fluoro-W)-T-(2CF3-F)-C(3)-N-N-(4CF3-F)-H-D-C(3)-(7Aza-W)-(Aze)-[D-Lys(DOTA)]-NH2] (Ac-[Trp(5-F)]T[Phe(2-CF3)]CNN[Phe(4-CF3)]HDC[Trp(7-aza)][Aze][dK](DOTA)-NH2; disulfide 4-10) |
